The values that follow come from patent publication US10961236B2, “(S)-2-(1-cyclopropylethyl)-5-(4-methyl-2-((6-(2-oxopyrrolidin-1-yl)pyridin-2-yl)amino) thiazol-5-yl)-7-(methylsulfonyl)isoindolin-1-one as a phosphatidylinositol 3-kinase inhibitor” (AstraZeneca AB, priority 2016, dated 2021).

The term IC50 denotes the concentration needed to halve the response being measured.

Common to all, as to assay type: biochemical
Assay [1] has as its target recombinant human PI3Kα (6-His(p110-p85α)) (Homo sapiens (Human), UniProt P42336). Nature of the assay: Enzymatic activity assay for recombinant human PI3Kα (ADP-Glo). Conditions: 1.2 nM PI3Kα, 20 μM ATP, 80 μM DiC8-PIP2, ADP-Glo. Put shortly: (§1)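 ADP-Glo luminescence after DiC8-PIP2 phosphorylation at RT: 80 μM lipid substrate, 20 μM ATP, 1.2 nM enzyme (0.6 nM for δ) in Tris pH 7.4 with MgCl2, DTT, CHAPS. Compounds pre-incubated 15 min with enzyme, then 60 min reaction; DMSO ≤1%.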

Assay [2] has as its target recombinant human PI3Kδ (6-His(p110-p85α)) (Homo sapiens (Human), UniProt O00329). Put plainly: Enzymatic activity assay for recombinant human PI3Kδ (ADP-Glo). Conditions: 0.6 nM PI3Kδ, 20 μM ATP, 80 μM DiC8-PIP2, ADP-Glo. In short, it runs like this: (§2)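 ADP-Glo luminescence after DiC8-PIP2 (80 μM) phosphorylation with 20 μM ATP in 50 mM Tris pH 7.4, 3 mM MgCl2, 2.1 mM DTT, 0.05% CHAPS at room temperature. Enzyme 1.2 nM PI3Kγ or 0.6 nM PI3Kδ; inhibitors pre-incubated 15 min, then 60 min reaction.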

The target of assay [3] is recombinant human PI3Kβ (6-His(p110-p85α)) (Homo sapiens (Human), UniProt P42338). Put plainly: Enzymatic activity assay for recombinant human PI3Kβ (ADP-Glo). Conditions: 1.2 nM PI3Kβ, 20 μM ATP, 80 μM DiC8-PIP2, ADP-Glo. In short, it runs like this:
as §1

Assay [4] deals with recombinant human PI3Kγ ((aa144-1102)-6His) (Homo sapiens (Human), UniProt P48736). Nature of the assay: Enzymatic activity assay for recombinant human PI3Kγ (ADP-Glo). Conditions: 1.2 nM PI3Kγ, 20 μM ATP, 80 μM DiC8-PIP2, ADP-Glo. In short, it runs like this:
as §2

Chain of recombinant human PI3Kα (6-His(p110-p85α)) (P42336 whole entry): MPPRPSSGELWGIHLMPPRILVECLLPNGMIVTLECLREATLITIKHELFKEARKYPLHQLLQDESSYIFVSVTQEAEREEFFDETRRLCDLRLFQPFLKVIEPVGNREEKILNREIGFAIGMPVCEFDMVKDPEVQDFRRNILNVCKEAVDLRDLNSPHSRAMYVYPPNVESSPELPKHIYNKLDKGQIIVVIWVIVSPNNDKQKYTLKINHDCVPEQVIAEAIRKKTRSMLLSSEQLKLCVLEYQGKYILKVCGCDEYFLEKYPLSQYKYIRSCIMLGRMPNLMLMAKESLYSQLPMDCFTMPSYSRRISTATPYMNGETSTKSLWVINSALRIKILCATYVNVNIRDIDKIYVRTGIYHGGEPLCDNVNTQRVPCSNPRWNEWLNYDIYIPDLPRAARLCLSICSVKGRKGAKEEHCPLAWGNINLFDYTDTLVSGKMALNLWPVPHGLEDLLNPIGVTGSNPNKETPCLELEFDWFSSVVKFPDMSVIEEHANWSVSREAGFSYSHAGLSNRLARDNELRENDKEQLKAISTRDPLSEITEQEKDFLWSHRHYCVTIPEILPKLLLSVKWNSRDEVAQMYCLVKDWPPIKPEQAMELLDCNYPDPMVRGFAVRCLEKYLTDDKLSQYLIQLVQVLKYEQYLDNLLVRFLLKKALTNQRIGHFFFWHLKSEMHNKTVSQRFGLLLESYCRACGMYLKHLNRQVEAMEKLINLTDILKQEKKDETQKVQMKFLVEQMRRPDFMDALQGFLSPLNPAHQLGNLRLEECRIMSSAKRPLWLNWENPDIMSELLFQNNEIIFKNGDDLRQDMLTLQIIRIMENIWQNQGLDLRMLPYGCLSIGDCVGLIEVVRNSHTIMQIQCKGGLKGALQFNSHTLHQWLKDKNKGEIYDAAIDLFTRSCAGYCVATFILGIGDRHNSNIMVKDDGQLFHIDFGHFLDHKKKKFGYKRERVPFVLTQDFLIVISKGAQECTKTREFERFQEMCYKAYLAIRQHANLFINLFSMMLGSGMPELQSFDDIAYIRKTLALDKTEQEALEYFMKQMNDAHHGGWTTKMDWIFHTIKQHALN
Chain of recombinant human PI3Kα (6-His(p110-p85α)) (P27986 whole entry partner): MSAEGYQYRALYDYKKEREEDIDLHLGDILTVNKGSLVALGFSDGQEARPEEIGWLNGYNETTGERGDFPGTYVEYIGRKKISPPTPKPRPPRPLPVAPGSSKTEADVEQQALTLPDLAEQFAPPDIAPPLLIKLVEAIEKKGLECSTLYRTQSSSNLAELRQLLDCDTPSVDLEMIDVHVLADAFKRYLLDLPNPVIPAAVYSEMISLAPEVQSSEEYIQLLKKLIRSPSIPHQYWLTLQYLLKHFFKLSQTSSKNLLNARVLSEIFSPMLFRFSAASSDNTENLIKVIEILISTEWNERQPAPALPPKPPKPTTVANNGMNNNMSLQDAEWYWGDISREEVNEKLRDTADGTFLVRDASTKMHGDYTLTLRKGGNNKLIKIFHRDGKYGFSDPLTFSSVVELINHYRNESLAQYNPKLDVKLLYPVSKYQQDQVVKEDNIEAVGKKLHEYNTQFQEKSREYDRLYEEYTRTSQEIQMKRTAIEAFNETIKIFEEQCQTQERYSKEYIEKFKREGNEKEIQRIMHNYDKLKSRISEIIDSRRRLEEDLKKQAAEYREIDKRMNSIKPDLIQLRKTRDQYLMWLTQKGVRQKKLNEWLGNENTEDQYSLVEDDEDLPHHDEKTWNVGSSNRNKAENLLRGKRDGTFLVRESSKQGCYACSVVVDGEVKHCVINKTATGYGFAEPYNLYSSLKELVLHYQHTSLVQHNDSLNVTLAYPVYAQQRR
Chain of recombinant human PI3Kγ ((aa144-1102)-6His) (P48736 144-1102): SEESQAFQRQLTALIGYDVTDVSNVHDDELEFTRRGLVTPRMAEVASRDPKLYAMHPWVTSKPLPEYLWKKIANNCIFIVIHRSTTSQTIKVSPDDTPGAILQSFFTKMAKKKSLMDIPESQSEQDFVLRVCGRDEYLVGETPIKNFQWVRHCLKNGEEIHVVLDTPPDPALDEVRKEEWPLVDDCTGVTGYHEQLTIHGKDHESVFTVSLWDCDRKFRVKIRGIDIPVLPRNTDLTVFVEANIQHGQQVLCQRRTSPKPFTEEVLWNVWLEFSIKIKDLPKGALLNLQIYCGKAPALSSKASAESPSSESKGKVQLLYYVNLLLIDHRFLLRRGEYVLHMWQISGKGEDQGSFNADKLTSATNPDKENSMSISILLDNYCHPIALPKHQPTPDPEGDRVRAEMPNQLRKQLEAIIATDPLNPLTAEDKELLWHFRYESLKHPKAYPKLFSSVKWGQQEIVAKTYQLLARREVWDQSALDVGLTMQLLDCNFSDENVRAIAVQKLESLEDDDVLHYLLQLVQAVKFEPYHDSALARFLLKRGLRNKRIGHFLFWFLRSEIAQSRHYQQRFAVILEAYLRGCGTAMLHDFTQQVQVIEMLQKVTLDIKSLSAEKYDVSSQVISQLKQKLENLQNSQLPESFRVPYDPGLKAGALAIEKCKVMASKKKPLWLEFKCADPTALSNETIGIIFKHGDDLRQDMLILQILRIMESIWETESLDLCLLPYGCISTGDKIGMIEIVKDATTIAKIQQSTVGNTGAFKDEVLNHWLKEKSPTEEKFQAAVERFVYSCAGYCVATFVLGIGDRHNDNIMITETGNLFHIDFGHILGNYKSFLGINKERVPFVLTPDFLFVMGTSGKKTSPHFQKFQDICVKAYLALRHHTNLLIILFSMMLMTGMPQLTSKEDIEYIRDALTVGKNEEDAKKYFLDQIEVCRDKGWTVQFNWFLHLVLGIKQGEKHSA
Chain of recombinant human PI3Kβ (6-His(p110-p85α)) (P42338 whole entry): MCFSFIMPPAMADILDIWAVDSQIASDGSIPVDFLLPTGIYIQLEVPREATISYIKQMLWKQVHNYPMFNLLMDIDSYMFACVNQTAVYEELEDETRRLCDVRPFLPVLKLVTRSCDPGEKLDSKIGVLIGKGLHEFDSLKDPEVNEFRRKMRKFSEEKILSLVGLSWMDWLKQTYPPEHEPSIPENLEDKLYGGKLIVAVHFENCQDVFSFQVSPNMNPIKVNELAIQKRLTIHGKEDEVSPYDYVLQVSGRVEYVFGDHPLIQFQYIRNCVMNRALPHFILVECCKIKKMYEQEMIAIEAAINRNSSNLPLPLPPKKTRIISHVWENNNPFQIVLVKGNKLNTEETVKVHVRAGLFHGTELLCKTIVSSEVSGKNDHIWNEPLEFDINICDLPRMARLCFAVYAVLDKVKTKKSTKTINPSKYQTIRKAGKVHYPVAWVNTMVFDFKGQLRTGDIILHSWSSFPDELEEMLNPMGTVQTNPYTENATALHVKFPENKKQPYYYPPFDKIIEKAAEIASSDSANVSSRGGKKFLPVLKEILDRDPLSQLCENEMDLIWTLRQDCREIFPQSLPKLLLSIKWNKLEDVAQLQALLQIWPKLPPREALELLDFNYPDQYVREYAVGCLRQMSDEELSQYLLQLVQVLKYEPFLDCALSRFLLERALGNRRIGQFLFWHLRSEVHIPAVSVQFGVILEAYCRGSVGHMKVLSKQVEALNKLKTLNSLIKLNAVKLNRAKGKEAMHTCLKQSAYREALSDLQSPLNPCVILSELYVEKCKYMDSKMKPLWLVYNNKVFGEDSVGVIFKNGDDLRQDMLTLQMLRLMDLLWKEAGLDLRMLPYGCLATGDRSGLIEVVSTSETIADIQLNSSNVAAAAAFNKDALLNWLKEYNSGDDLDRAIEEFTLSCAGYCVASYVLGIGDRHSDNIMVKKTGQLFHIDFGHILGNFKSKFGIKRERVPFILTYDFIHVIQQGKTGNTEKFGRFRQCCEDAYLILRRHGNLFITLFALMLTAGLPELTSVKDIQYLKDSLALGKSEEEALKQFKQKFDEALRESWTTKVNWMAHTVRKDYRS
Chain of recombinant human PI3Kβ (6-His(p110-p85α)) (P27986 whole entry partner): as the sequence (P27986 whole entry partner) above
Chain of recombinant human PI3Kδ (6-His(p110-p85α)) (O00329 whole entry): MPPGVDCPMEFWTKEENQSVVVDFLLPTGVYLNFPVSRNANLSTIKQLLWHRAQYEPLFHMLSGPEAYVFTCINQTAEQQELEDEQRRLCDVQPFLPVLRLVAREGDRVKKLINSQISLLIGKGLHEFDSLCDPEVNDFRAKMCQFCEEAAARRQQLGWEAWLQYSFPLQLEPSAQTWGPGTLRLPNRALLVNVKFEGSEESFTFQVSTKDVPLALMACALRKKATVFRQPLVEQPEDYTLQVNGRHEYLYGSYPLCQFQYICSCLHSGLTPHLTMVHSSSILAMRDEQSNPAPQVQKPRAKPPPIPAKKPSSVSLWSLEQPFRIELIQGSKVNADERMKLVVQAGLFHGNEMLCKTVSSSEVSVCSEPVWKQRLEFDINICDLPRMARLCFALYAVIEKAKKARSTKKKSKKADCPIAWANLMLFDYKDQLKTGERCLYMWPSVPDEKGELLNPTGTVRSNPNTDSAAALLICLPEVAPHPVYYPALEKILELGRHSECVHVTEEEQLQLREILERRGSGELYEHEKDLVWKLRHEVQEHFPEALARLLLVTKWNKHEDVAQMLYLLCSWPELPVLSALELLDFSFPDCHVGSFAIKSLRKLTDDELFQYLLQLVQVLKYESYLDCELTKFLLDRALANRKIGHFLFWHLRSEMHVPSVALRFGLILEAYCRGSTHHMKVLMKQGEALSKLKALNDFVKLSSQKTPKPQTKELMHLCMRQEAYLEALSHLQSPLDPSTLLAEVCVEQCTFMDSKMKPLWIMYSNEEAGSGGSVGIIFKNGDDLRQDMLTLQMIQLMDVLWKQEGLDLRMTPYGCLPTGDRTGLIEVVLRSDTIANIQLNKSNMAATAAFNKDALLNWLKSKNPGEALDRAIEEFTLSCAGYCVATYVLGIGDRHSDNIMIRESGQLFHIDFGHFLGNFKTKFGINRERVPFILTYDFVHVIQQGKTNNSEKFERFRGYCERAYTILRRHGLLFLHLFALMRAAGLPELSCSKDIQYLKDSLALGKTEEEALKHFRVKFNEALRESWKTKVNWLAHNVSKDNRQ
Chain of recombinant human PI3Kδ (6-His(p110-p85α)) (P27986 whole entry partner): as the sequence (P27986 whole entry partner) above

Turning to `Cc1nc(Nc2cccc(N3CC[C@H](O)C3=O)n2)sc1-c1cc2c(c(S(=O)(=O)NC(C)C)c1)C(=O)N([C@@H](C)C(F)(F)F)C2` [Example 60, 6-[2-({6-[(3S)-3-Hydroxy-2-oxopyrrolidin-1-yl]pyridin-2-yl}amino)-4-methyl-1,3-thiazol-5-yl]-3-oxo-N-(propan-2-yl)-2-[(2S)-1,1,1-trifluoropropan-2-yl]-2,3-dihydro-1H-isoindole-4-sulfonamide], the IC50 worked out at 0.057 µM in assay [1], 0.0005 µM in assay [2], 0.322 µM in assay [3] and 0.0012 µM in assay [4].

As for `CC[C@H](C)N1Cc2cc(-c3sc(Nc4cccc(N5CCOCC5=O)n4)nc3C)cc(S(=O)(=O)NC)c2C1=O` [Example 62, 2-[(2S)-Butan-2-yl]-N-methyl-6-(4-methyl-2-{[6-(3-oxomorpholin-4-yl)pyridin-2-yl]amino}-1,3-thiazol-5-yl)-3-oxo-2,3-dihydro-1H-isoindole-4-sulfonamide], the IC50 worked out at 0.162 µM in assay [1], 0.0021 µM in assay [2], 1.15 µM in assay [3] and 0.0008 µM in assay [4].

On to `CNS(=O)(=O)c1cc(-c2sc(Nc3cccc(N4CCNC4=O)n3)nc2C)cc2c1C(=O)N([C@@H](C)C(F)(F)F)C2` [Example 63, N-Methyl-6-(4-methyl-2-{[6-(2-oxoimidazolidin-1-yl)pyridin-2-yl]amino}-1,3-thiazol-5-yl)-3-oxo-2-[(2S)-1,1,1-trifluoropropan-2-yl]-2,3-dihydro-1H-isoindole-4-sulfonamide], for which the IC50 in assay [1] amounted to 0.032 µM; in assay [2], 0.0007 µM; in assay [3] it was 0.274 µM; in assay [4], 0.0012 µM.
